# According to US20250382258A1, “NAPHTHALENE-TYPE COMPOUND AND PREPARATION METHOD THEREFORE AND USE THEREFORE” (DALIAN INSTITUTE OF CHEMICAL PHYSICS, CHINESE ACADEMY OF …, priority 2022, published 2025):
# Experiment: water solubility under acidic conditions
# Assay type: physicochemical
# Details: not given
row,Compound,water solubility under acidic conditions
1,"2,2′,6,6′-tetrabenzylamine-5,5′-dihydroxy-1,1′-dicarbonylbinaphthalene",approximately 2 M
2,"O=C1C(O)=C(NCc2ccccc2)C(=O)c2ccccc21 [3-benzylamine-2-hydroxy-1,4-dicarbonylnaphthalene]",approximately 1 M
3,"Oc1c(NCc2ccccc2)ccc2c(O)c(NCc3ccccc3)ccc12 [2,6-Dibenzylamine-1,5-naphthalenediol]",lower than 5 mM
4,"Oc1c(NCc2ccccc2)cc(NCc2ccccc2)c2c(O)c(NCc3ccccc3)cc(NCc3ccccc3)c12 [2,4,6,8-Tetrabenzylamine-1,5-naphthalenediol]",lower than 1 M
5,"O=C1C(NCc2ccccc2)=C(O)C(=O)c2c(O)c(NCc3ccccc3)cc(NCc3ccccc3)c21 [3,5,7-tribenzylamine-2,8-dihydroxy-1,4-dicarbonylnaphthalene]",approximately 1.6 M

# Experiment: not given
# Details: in a pH=14 aqueous solution; cited from earlier work
row,Compound,solubility [mM]
1,O=C1C(O)=C(C2=C(O)C(=O)c3ccccc3C2=O)C(=O)c2ccccc21 [bilawsone],560
